Consider twelve compounds from the SangsterLogP compilation.

In turn, `CCN1C(=O)NC(Cc2ccccc2)C1=O` (configuration not stated) yielded a log partition coefficient (logP) of 1.61.

Regarding `CC(C)C1NC(=O)NC1=O` (configuration not stated), the lipophilicity (logP) is -0.36.

`CC(C)CC1NC(=O)NC1=O` (configuration not stated) gave a logP of 0.35.

Compound `O=C1NC(Cc2ccccc2)C(=O)N1Cc1ccccc1` (configuration not stated) showed a log partition coefficient (logP) of 2.84.

Take `CC1NC(=O)NC1=O` (configuration not stated): the lipophilicity (logP) was -0.95.

Compound `CN1CC(=O)N(c2ccccc2)C1=O` registered a log partition coefficient (logP) of 0.14.

On to `CCC1(c2ccccc2)NC(=O)N(C)C1=O` (configuration not stated), for which the lipophilicity (logP) is 1.69.

As for `O=C1CNC(=O)N1Cc1ccccc1`, the lipophilicity (logP) came to 0.82.

Consider `O=C1CNC(=O)N1`, for which the lipophilicity (logP) was -1.53.

As for `O=C1NC(=O)C(Cc2ccccc2)(Cc2ccccc2)N1`, the log partition coefficient (logP) worked out at 2.46.

Compound `CN1C(=O)NC(c2ccccc2)(c2ccccc2)C1=O` came in with a lipophilicity (logP) of 2.28.

The compound `O=C1NC(Cc2ccccc2)C(=O)N1c1ccccc1` (configuration not stated) gave a logP of 2.27.
